Data from patent publication US5374733A, “Sweetening agent derived from L-aspartic or L-glutamic acid” (priority 1989, dated 1994).

Assay: not given
Conditions: Table 2, EP-A-0.338.946; sucrose concentration not stated; cited from earlier work

Compound | SP
CCCCCCCCN[C@@H](CC(=O)O)C(=O)Nc1ccc(C#N)cc1 [CH3 (CH2)6 CH2/1/4-CN--C6 H4] | 400
CCCCCCCCN[C@@H](CCC(=O)O)C(=O)Nc1ccc(C#N)cc1 [CH3 (CH2)6 CH2/2/4-CN--C6 H4] | 2000
CC(C)CCN[C@@H](CCC(=O)O)C(=O)Nc1ccc(C#N)cc1 [(CH3)2 CHCH2 CH2/2/4-CN--C6 H4] | 800
CCCCCCCN[C@@H](CCC(=O)O)C(=O)Nc1ccc(C#N)nc1 [CH3 (CH2)5 CH2/2/2-CN-pyrid-5-yl] | 4000
CC(N[C@@H](CC(=O)O)C(=O)Nc1ccc(C#N)cc1)C1CCCCC1 (some centres unmarked) [c-C6 H11 CH(CH3)/1/4-CN--C6 H4] | 200
CCCCCCCN[C@@H](CCC(=O)O)C(=O)Nc1ccc(C#N)cc1 [CH3 (CH2)5 CH2/2/4-CN--C6 H4] | 7000
N#Cc1ccc(NC(=O)[C@H](CCC(=O)O)NCCCC2CCCCC2)cc1 [c-C6 H11 CH2 CH2 CH2/2/4-CN--C6 H4] | 7000
CC=CC=CCN[C@@H](CCC(=O)O)C(=O)Nc1ccc(C#N)cc1 [CH3 CH=CHCH=CHCH2/2/4-CN--C6 H4] | 2000
CCCCCN[C@@H](CC(=O)O)C(=O)Nc1ccc(C#N)cc1 [CH3 (CH2)3 CH2/1/4-CN--C6 H4] | 300
CC(CCN[C@@H](CCC(=O)O)C(=O)Nc1ccc(C#N)cc1)c1ccccc1 (some centres unmarked) [C6 H5 CH(CH3)CH2 CH2/2/4-CN--C6 H4] | 400
CCCCCCN[C@@H](CCC(=O)O)C(=O)Nc1ccc(C#N)cc1 [CH3 (CH2)4 CH2/2/4-CN--C6 H4] | 5000
CCCC(C)CN[C@@H](CCC(=O)O)C(=O)Nc1ccc(C#N)cc1 (some centres unmarked) [CH3 (CH2)2 CH(CH3)CH2/2/4-CN--C6 H4] | 5000
CC(C)CCN[C@@H](CC(=O)O)C(=O)Nc1ccc(C#N)cc1 [(CH3)2 CHCH2 CH2/1/4-CN--C6 H4] | 100
N#Cc1ccc(NC(=O)[C@H](CC(=O)O)NCCc2ccccc2)cc1 [C6 H5 CH2 CH2/1/4-CN--C6 H4] | 300
CCCCCCCN[C@@H](CC(=O)O)C(=O)Nc1ccc(C#N)cc1 [CH3 (CH2)5 CH2/1/4-CN--C6 H4] | 2000
CCC(CC)CN[C@@H](CC(=O)O)C(=O)Nc1ccc(C#N)cc1 [(CH3 CH2)2 CHCH2/1/4-CN--C6 H4] | 200
N#Cc1ccc(NC(=O)[C@H](CCC(=O)O)NCCc2ccccc2)cc1 [C6 H5 CH2 CH2/2/4-CN--C6 H4] | 300
N#Cc1ccc(NC(=O)[C@H](CCC(=O)O)NCC=Cc2ccccc2)cc1 [C6 H5 CH=CHCH2/2/4-CN--C6 H4] | 2000

Same assay, conditions: prior art and aspartame; sucrose concentration not given; cited from earlier work

Compound | sweetening potency
O=C(O)C[C@H](NC(=O)C(Cl)(Cl)Cl)C(=O)Nc1cccnc1 [Y=H, X=CCl3 CO] | 1 times that of sucrose
O=C(O)C[C@H](NC(=O)C(F)(F)F)C(=O)Nc1cccnc1 [Y=H, X=CF3 CO] | 40 times that of sucrose

Assay: Sweetening potency: taste comparison by a team of eight experienced people with a sucrose reference solution
Conditions: Table 3; weight basis, compared with a 2% aqueous solution of sucrose
Procedure: The sweetening potency of the compounds described in the Examples was evaluated by a team of eight experienced people. This is done by comparing the taste of the compounds, in aqueous solution at variable concentrations, with a 2%, 5 % or 10 % reference solution of sucrose. The sweetening potency of the test compound compared with sucrose then corresponds to the weight ratio between the compound and sucrose for equal sweetening intensity, i.e. when the sweet tastes of the solution of the test compound and the reference solution of sucrose are considered, by a majority of people, to have the same sweetening intensity.
Summary Table 3 below gives, by way of examples, a list of a few compounds obtained by experimental protocols similar to those described above, which those skilled in the art will easily find, together with their relative sweetening potency (SP), evaluated on a weight basis, compared with a 2% aqueous solution of sucrose. When the groups R1, R2 and R3 are different, the configuration of the asymmetric carbon to which they are bonded (carbon marked with an asterisk) is designated according to the conventional rules of stereochemistry using the R/S system: R, S or, when both configurations coexist in the same compound, RS.

Compound | SP (relative sweetening potency)
C[C@@H](Oc1ccccc1)C(=O)N[C@@H](CC(=O)O)C(=O)Nc1ccc(C#N)cc1 [CH3/H/C6 H5 O/R/1/CH/CH/CN] | 18000
C[C@H](C(=O)N[C@@H](CCC(=O)O)C(=O)Nc1ccc(C#N)cc1)c1ccccc1 [CH3/H/C6 H5/S/2/CH/CH/CN] | 1500
C=CCC(C)(C)C(=O)N[C@@H](CCC(=O)O)C(=O)Nc1ccc(C#N)cc1 [CH3/CH3/CH2 CHCH2/2/CH/CH/CN] | 500
N#Cc1ccc(NC(=O)[C@H](CC(=O)O)NC(=O)C2(c3ccccc3)CC2)cc1 [CH2 CH2/C6 H5/1/CH/CH/CN] | 1000
N#Cc1ccc(NC(=O)[C@H](CCC(=O)O)NC(=O)C(Cl)c2ccccc2)cc1 (some centres unmarked) [Cl/H/C6 H5/RS/2/CH/CH/CN] | 2200
N#Cc1ccc(NC(=O)[C@H](CCC(=O)O)NC(=O)C(c2ccccc2)c2ccccc2)cc1 [C6 H5/H/C6 H5/2/CH/CH/CN] | 250
C[C@@H](C(=O)N[C@@H](CCC(=O)O)C(=O)Nc1ccc(C#N)cc1)c1ccccc1 [CH3/H/C6 H5/R/2/CH/CH/CN] | 1300
CCCCCC(C)(C)C(=O)N[C@@H](CCC(=O)O)C(=O)Nc1ccc(C#N)nc1 [CH3/CH3/CH3 (CH2) 4/2/N/CH/CN] | 3000
CCCC[C@H](C)C(=O)N[C@@H](CCC(=O)O)C(=O)Nc1ccc(C(C)=O)cc1 [CH3/H/CH3 (CH2)3/S/2/CH/CH/COCH3] | 300
CCCCC(OC)C(=O)N[C@@H](CCC(=O)O)C(=O)Nc1ccc(C#N)nc1 (some centres unmarked) [CH3 O/H/CH3 (CH2)3/RS/2/N/CH/CN] | 2000
CCCCC(C)C(=O)N[C@@H](CC(=O)O)C(=O)Nc1ccc(C#N)cc1 (some centres unmarked) [CH3/H/CH3 (CH2)3/RS/1/CH/CH/CN] | 1500
CC(Oc1ccccc1)C(=O)N[C@@H](CCC(=O)O)C(=O)Nc1ccc(C#N)cc1 (some centres unmarked) [CH3/H/C6 H5 O/RS/2/CH/CH/CN] | 4000
CC(Oc1ccccc1)C(=O)N[C@@H](CCC(=O)O)C(=O)Nc1ccc(C#N)nc1 (some centres unmarked) [CH3/H/C6 H5 O/RS/2/N/CH/CN] | 13000
CCCC[C@@H](C)C(=O)N[C@@H](CCC(=O)O)C(=O)Nc1ccc(C#N)cc1 [CH3/H/CH3 (CH2)3/R/2/CH/CH/CN] | 3000
CCC[C@@H](C)C(=O)N[C@@H](CCC(=O)O)C(=O)Nc1ccc(C#N)cc1 [CH3/H/CH3 (CH2)2/R/2/CH/CH/CN] | 500
CCC[C@H](C)C(=O)N[C@@H](CCC(=O)O)C(=O)Nc1ccc(C#N)cc1 [CH3/H/CH3 (CH2)2/S/2/CH/CH/CN] | 2800
CCC(C(=O)N[C@@H](CCC(=O)O)C(=O)Nc1ccc(C#N)cc1)c1ccccc1 (some centres unmarked) [C2 H5/H/C6 H5/RS/2/CH/CH/CN] | 2700
CCCCC(CC)C(=O)N[C@@H](CCC(=O)O)C(=O)Nc1ccc(C#N)cc1 (some centres unmarked) [C2 H5/H/CH3 (CH2)3/RS/2/CH/CH/CN] | 5000
N#Cc1ccc(NC(=O)[C@H](CCC(=O)O)NC(=O)C2(c3ccccc3)CCCC2)cc1 [CH2 (CH2)2 CH2/C6 H5/2/CH/CH/CN] | 2000
C[C@@H](C(=O)N[C@@H](CCC(=O)O)C(=O)Nc1ccc(C#N)nc1)c1ccccc1 [CH3/H/C6 H5/R/2/N/CH/CN] | 2500

Compound | SP (relative sweetening potency)
COC(C(=O)N[C@@H](CCC(=O)O)C(=O)Nc1ccc(C#N)cc1)c1ccccc1 (some centres unmarked) [CH3 O/H/C6 H5/RS/2/CH/CH/CN] | 2300
C[C@H](C(=O)N[C@@H](CCC(=O)O)C(=O)Nc1ccc(C#N)nc1)c1ccccc1 [CH3/H/C6 H5/S/2/N/CH/CN] | 4000
CCCC[C@@H](C)C(=O)N[C@@H](CCC(=O)O)C(=O)Nc1ccc(C#N)nc1 [CH3/H/CH3 (CH2)3/R/2/N/CH/CN] | 2000
CCCO[C@@H](C)C(=O)N[C@@H](CCC(=O)O)C(=O)Nc1ccc(C#N)cc1 [CH3/H/CH3 (CH2)2 O/S/2/CH/CH/CN] | 200
CO[C@H](C(=O)N[C@@H](CCC(=O)O)C(=O)Nc1ccc(C#N)nc1)c1ccccc1 [CH3 O/H/C6 H5/S/2/N/CH/CN] | 3000
N#Cc1ccc(NC(=O)[C@H](CCC(=O)O)NC(=O)C2(c3ccccc3)CC2)cc1 [CH2 CH2/C6 H5/2/CH/CH/CN] | 2500
N#Cc1ccc(NC(=O)[C@H](CCC(=O)O)NC(=O)C2(c3ccccc3)CCCC2)cn1 [CH2 (CH2)2 CH2/C6 H5/2/N/CH/CN] | 3000
CC(C(=O)N[C@@H](CCC(=O)O)C(=O)Nc1ccc(C#N)cc1)C1CCCCC1 (some centres unmarked) [CH3/H/c-C6 H11/RS/2/CH/CH/CN] | 1000
CCCO[C@H](C)C(=O)N[C@@H](CCC(=O)O)C(=O)Nc1ccc(C#N)cc1 [CH3/H/CH3 (CH2)2 O/R/2/CH/CH/CN] | 400
CCCC[C@H](C)C(=O)N[C@@H](CCC(=O)O)C(=O)Nc1cnc(C#N)nc1 [CH3/H/CH3 (CH2)3/S/2/N/N/CN] | 10000
CC(C)CCC(C)(C)C(=O)N[C@@H](CCC(=O)O)C(=O)Nc1ccc(C#N)cc1 [CH3/CH3/(CH3)2 CH(CH2)2/2/CH/CH/CN] | 10000
CC(OC1C(C)CCCC1C)C(=O)N[C@@H](CCC(=O)O)C(=O)Nc1ccc(C#N)cc1 (some centres unmarked) [CH3/H/(2,6-diMe)-c-C6 H9 O/RS/2/CH/CH/CN] | 1000
CCCCC(C)(C)C(=O)N[C@@H](CCC(=O)O)C(=O)Nc1ccc(C#N)cc1 [CH3/CH3/CH3 (CH2)3/2/CH/CH/CN] | 11000
CCCC[C@H](C)C(=O)N[C@@H](CCC(=O)O)C(=O)Nc1ccc(C(N)=O)cc1 [CH3/H/CH3 (CH2)3/S/2/CH/CH/CONH2] | 700
CCCCCC(C)C(=O)N[C@@H](CCC(=O)O)C(=O)Nc1ccc(C#N)cc1 (some centres unmarked) [CH3/H/CH3 (CH2)4/RS/2/CH/CH/CN] | 1000
CC(C)CCC(C)C(=O)N[C@@H](CCC(=O)O)C(=O)Nc1ccc(C#N)cc1 (some centres unmarked) [CH3/H/(CH3)2 CH(CH2)2/RS/2/CH/CH/CN] | 6000
CCCCC(C)(C)C(=O)N[C@@H](CCC(=O)O)C(=O)Nc1ccc(Cl)nc1 [CH3/CH3/CH3 (CH2)3/2/N/CH/Cl] | 600
CO[C@](C(=O)N[C@@H](CCC(=O)O)C(=O)Nc1ccc(C#N)cc1)(c1ccccc1)C(F)(F)F [CF3/CH3 O/C6 H5/S/2/CH/CH/CN] | 600
CO[C@@H](C(=O)N[C@@H](CCC(=O)O)C(=O)Nc1ccc(C#N)nc1)c1ccccc1 [CH3 O/H/C6 H5/R/2/N/CH/CN] | 11000
